From patent publication US11141371B2, “Extracts of Nannochloropsis sp. and their applications” (Cutech SRL, priority 2014, dated 2021)

Columns and labels:
[1] = test system: human sebaceous glands (hSGs); test: Sebum (normalized total lipids) of ex-vivo cultured human sebaceous glands; format: cell-based; conditions: 5 μM
IL-1α = IL-1α release by ex-vivo skin stimulated with 2% SDS (ELISA); format: cell-based, human; conditions: 2% SDS stimulus, lenitive treatment 10 μM; Table 7
[2] = test system: ex-vivo cultured human skin; test: Melanogenesis in ex-vivo human skin culture (melanin content, Fontana-Masson staining); format: cell-based
Experimental: The adopted culture medium was a modified William-E, and it was renewed at day three of the tissue culture. […] On a daily basis, 4 μl of these extract preparations were applied topically to the cultured skin samples, while the control group received the same quantity of the pure DMSO. After six days of organ culture, histological sections were prepared from the skin samples, and quantitative changes of melanin content were investigated by adopting the Fontana-Masson staining technique. The variation in melanin content was estimated by image analysis of the microphotographs of histological sections of skin.

In the case of `COc1cc(CNC(=O)CCCC/C=C/C(C)C)ccc1O` [Capsaicin], the “Sebum in hSGs as % ratio of the control group value” (from here on “Sebum in hSGs as % ratio”) ([1]; another donor (Table 11)) is reported as 66.5%, the “Sebum in hSGs as % ratio” value ([1]; another donor (Table 12)) is reported as 91.9% and the “Sebum in hSGs as % ratio” value ([1]; another donor (Table 13)) is reported as 45.6%.
With `C[C@@H]1C[C@H]2[C@@H]3CCC4=CC(=O)C=C[C@]4(C)[C@@]3(F)[C@@H](O)C[C@]2(C)[C@@]1(O)C(=O)CO` [Dexam., dexamethasone] the IL-1α (IL-1α) was 48.6 pg/mL and the “IL-1α release [%], SDS group as reference (100%)” value (IL-1α) was 92.2%.
`O=c1cc(CO)occ1O` [KA, Kojic acid] was tested, and the “Melanin content as % ratio of the control group performance” value (shortened to “Melanin content as % ratio”) ([2]; 0.1%, Table 6) was 83.2%.
With `CC1=C(/C=C/C(C)=C/C=C/C(C)=C/C(=O)O)C(C)(C)CCC1` [Retinoic ac., Retinoic acid] the “Melanin content as % ratio” value ([2]; 10 μM, third donor (Table 5)) was 82.4% and the “Melanin content as % ratio” value ([2]; 100 μM, third donor (Table 5)) was 88.3%.
